Laboratory results reported in patent US20170313669A1, “LACTONE COMPOUNDS AND METHODS OF MAKING AND USING SAME” (THE SCRIPPS RESEARCH INSTITUTE, priority 2015, published 2017).

Tests used:
[1] = target: mouse brain membrane PS lipase activity (Mus musculus, UniProt Q9Z1Q2); format: biochemical; conditions: two-month old ABHD12+/+ and ABHD12−/− mice
ABHD2 = target: T1, ABHD2 (Homo sapiens, UniProt P08910); test: ABPP-SILAC, COLO205 cells treated in situ; format: cell-based; conditions: COLO 205, 4 h
T1 construct: All ABPP-SILAC experiments were performed using the human COLO205 colon cancer cell line; endogenous in cells; host or cells: COLO205
T1 sequence (P08910 whole entry): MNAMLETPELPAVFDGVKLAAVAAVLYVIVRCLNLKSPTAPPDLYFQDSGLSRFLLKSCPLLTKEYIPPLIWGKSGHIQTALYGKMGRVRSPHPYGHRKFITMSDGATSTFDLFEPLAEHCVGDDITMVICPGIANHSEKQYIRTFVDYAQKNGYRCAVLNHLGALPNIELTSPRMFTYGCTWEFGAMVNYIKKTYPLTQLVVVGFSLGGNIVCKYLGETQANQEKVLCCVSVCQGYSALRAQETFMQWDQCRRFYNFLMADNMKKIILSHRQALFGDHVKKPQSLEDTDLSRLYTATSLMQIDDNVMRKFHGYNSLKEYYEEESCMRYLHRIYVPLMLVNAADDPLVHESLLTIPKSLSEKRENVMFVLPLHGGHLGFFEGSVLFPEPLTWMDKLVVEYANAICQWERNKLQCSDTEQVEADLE

[2] = target: T2, PS lipase activity of human lymphoblast cell lines (LCLs) (Homo sapiens, UniProt O95870); test: PS lipase activity of LCL membrane proteomes; format: biochemical; conditions: proteomes pre-treated 1 μM, 30 min, 37° C.
T2 construct: PS lipase activity of membrane proteomes from indicated LCLs; endogenous in cells; host or cells: human lymphoblast cell lines (PHARC subject, relatives, controls), membrane proteome
Description: For part (a), Student's t-test: ** p<0.005 for PHARC LCL versus Control 1 or Control 2 LCLs.

ABHD12−/− macrophages = test: Lyso-PS and cytokine secretion of ABHD12−/− macrophages; format: cell-based, mouse; conditions: pre-treatment 1 μM, 4 h
Procedure: (a, b) Concentrations of secreted cytokines from ABHD12^+/+ and ABHD12^−/− thioglycollate-elicited peritoneal macrophages that were either unstimulated (PBS) (a) or stimulated (b) with LPS (5 μg/mL, 7 h). […] Student's t-test: * p<0.05 for ABHD12^−/− and ABHD12^+/+ groups. (c) Concentrations of secreted lyso-PS from ABHD12^+/+ and ABHD12^−/− macrophages treated with vehicle (PBS) or LPS (5 μg/mL) for 7 h. […] Student's t-test: ** p<0.0005, *** p<0.0001 for KC01-treated versus DMSO-treated groups.
Peritoneal macrophages were elicited and harvested from mice according to the standard protocols available from LIPID MAPS (See http://www.lipidmaps.org/protocols/PP0000001400.pdf and http://www.lipidmaps.org/protocols/PP0000001500.pdf). After removal of the RBC lysis buffer, the macrophages were re-suspended in RPMI 1640 with 10% FCS and IX penicillin-streptomycin. Cell counts measured using a Bio-Rad TC10 automated cell counter, and equal numbers of cells (2×10^6) were plated in 10 cm tissue culture dishes. Macrophages were allowed to adhere to the plates for 2 h at 37° C. and 5% CO2. […] Macrophages were then stimulated with lipopolysaccharide (5 μg/mL) for 7 hours. Sterile PBS was the vehicle in these studies. Four milliliters of the media was used for measuring secreted metabolites, and 0.5 mL was used for cytokine measurements.

ABHD16A = target: T3, ABHD16A (Homo sapiens, UniProt O95870); test: ABPP-SILAC, COLO205 cells treated in situ; format: cell-based; set-up: All ABPP-SILAC experiments were performed using the human COLO205 colon cancer cell line; endogenous in cells; host or cells: COLO205
T3 sequence (O95870 1-558): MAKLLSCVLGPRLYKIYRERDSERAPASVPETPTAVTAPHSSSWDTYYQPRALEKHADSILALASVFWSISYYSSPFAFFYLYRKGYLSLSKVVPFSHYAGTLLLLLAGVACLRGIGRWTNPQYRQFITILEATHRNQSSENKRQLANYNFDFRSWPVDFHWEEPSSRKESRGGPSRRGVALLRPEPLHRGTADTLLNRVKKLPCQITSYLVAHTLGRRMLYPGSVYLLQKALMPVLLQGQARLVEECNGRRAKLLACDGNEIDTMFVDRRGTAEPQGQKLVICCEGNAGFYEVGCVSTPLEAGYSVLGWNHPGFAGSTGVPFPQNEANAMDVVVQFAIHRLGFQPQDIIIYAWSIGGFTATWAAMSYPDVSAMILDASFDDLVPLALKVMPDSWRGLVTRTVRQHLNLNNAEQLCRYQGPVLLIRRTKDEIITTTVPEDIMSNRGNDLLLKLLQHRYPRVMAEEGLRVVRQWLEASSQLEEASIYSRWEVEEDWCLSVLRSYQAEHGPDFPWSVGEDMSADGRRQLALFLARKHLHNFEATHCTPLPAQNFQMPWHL

K562 cells = test: PS lipase activity of membrane fraction after in situ treatment; conditions: 1 μM, 4 h

mouse brain membrane PS lipase activity, sequence (Q9Z1Q2 whole entry): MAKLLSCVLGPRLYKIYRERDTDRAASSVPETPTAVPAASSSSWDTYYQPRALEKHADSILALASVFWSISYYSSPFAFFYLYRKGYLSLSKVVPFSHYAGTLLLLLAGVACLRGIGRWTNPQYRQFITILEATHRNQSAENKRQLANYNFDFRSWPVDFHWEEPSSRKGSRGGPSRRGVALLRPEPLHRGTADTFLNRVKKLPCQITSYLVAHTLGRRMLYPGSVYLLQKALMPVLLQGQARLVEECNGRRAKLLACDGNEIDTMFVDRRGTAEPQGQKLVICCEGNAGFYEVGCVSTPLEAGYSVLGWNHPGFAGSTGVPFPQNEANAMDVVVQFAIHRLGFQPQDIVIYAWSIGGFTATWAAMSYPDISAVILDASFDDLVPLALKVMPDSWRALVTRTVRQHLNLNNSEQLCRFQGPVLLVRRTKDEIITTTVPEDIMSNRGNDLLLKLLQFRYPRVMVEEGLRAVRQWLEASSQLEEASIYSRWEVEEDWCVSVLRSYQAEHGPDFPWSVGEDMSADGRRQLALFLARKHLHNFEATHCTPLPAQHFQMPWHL

Question: What does the source list for `CCCCCCCCCCCCCC1OC(=O)/C1=C\CCCCC(N)=O` (stereo not shown) [KC01, (Z)-6-(2-oxo-4-tridecyloxetan-3-ylidene)hexanamide]?
Answer: PS lipase activity of brain membrane lysates [1]: inhibited the PS lipase activity; inhibition at 1 µM (ABHD2): 94%; PS lipase activity [2]: substantially reduced; LPS-induced increases in lyso-PSs and cytokine secretion (ABHD12−/− macrophages): both blocked; light:heavy ratio (ABHD16A; 1 μM, 4 h): 0.02; inhibition at 1 µM (ABHD16A; COLO 205, 4 h): 98%; decrease of PS-lipase activity vs DMSO (K562 cells): > 90%
